This note sets out measurements from US10633419B2, “Immunomodulators” (BRISTOL-MYERS SQUIBB COMPANY, priority 2014, dated 2020).

Structures are written as SMILES. Positions of bridges follow the written chain, without caps; N, C: chain ends. Non-standard residues stand in square brackets, D forms with d. Residues, ends and D or L forms follow the SMILES beside them. *: point of attachment. εLys(α-Octadecanedioyl) = O=C(O)CCCCCCCCCCCCCCCCC(=O)N[C@@H](CCCCN*)C(=O)O; X6 = O=C(O)CCCCCCCCCCCCCCCCC(=O)N[C@@H](CCC(=O)NCCCOCCOCCOCCCN*)C(=O)O; X11 = O=C(O)CCCCCCCCCCCCC(=O)N[C@@H](CCC(=O)NCCCOCCOCCOCCCN*)C(=O)O; Trp(1-CH2COOH) = N[C@@H](Cc1cn(CC(=O)O)c2ccccc12)C(=O)O; d(cisHyp) = O=C(O)[C@H]1C[C@@H](O)CN1; PEG6 = NCCOCCOCCOCCOCCOCCOCCC(=O)O; Palmitoyl = CCCCCCCCCCCCCCCC(=O)*; Hyp = O=C(O)[C@@H]1C[C@@H](O)CN1; Undecanoyl = CCCCCCCCCCC(=O)*; NMeNle = CCCC[C@H](NC)C(=O)O; NMeA = CN[C@@H](C)C(=O)O; Aun = NCCCCCCCCCCC(=O)O; Dab = NCC[C@H](N)C(=O)O; Dap = NC[C@H](N)C(=O)O

The target of the first experiment is T1, PD-L1 (Homo sapiens, UniProt Q9NZQ7).
T1 construct: hPDL1(19-239)-TVMV-His; made in house; host or cells: HEK293T
T1 sequence (Q9NZQ7 with tags, fused parts or gaps): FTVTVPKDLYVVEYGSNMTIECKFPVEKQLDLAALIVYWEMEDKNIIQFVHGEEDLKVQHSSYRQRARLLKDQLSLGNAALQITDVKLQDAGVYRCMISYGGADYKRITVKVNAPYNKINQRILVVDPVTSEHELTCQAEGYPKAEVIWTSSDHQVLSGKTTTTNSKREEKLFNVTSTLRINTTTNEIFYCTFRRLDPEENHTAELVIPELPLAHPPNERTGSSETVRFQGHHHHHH
In words: PD-1/PD-L1 Homogenous Time-Resolved Fluorescence (HTRF) binding assay (PD-1-Ig/PD-L1-His). Conditions: inhibition of PD-1-Ig binding to PD-L1-TVMV-His; value given as number; read-out: HTRF IC50. The method, boiled down:
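Inhibitors pre-incubated 15 min with PD-L1-His (10 nM final), then PD-1-Ig (20 nM final) added for 15 min in dPBS/0.1% BSA/0.05% Tween-20. Eu-cryptate anti-Ig (1 nM) and APC anti-His (20 nM) added, 30 min equilibration, 665/620 nm HTRF ratio read.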
In general, IC50 refers to the point on the concentration scale where inhibition reaches its midpoint. On to `CCCCCCCCCCC(=O)NCCCC[C@H](NC(=O)CCOCCOCCOCCOCCOCCOCCNC(=O)[C@@H]1CSCC(=O)N[C@@H](Cc2ccc(O)cc2)C(=O)N(C)[C@@H](C)C(=O)N[C@@H](CC(N)=O)C(=O)N2CCC[C@H]2C(=O)N[C@@H](CN)C(=O)N[C@@H](CCC(N)=O)C(=O)N2C[C@H](O)C[C@@H]2C(=O)N[C@@H](Cc2c[nH]c3ccccc23)C(=O)N[C@@H](CO)C(=O)N[C@@H](Cc2cn(CC(=O)O)c3ccccc23)C(=O)N(C)[C@@H](CCCC)C(=O)N(C)[C@@H](CCCC)C(=O)N[C@@H](CC(C)C)C(=O)N1)C(=O)O` [Example 11062] ({CH2CO}-Y[NMeA]NP[Dap]Q[d(cisHyp)]WS[Trp(1-CH2COOH)][NMeNle][NMeNle]LC[PEG6]K(Undecanoyl)-OH; thioether N-14), for which the IC50 stood at 456 nM.

Still in this experiment, the particulars now being: inhibition of PD-1-Ig binding to PD-L1-TVMV-His; value given as range class; read-out: HTRF IC50.
As for `CCCCCCCCCCCCCCCC(=O)NCCCC[C@H](NC(=O)CNC(=O)[C@H](CO)NC(=O)CNC(=O)[C@H](CO)NC(=O)CNC(=O)[C@@H]1CSCC(=O)N[C@@H](Cc2ccc(O)cc2)C(=O)N(C)[C@@H](C)C(=O)N[C@@H](CC(N)=O)C(=O)N2CCC[C@H]2C(=O)N[C@@H](CCN)C(=O)N[C@@H](CC(C)C)C(=O)N2C[C@H](O)C[C@H]2C(=O)N[C@@H](Cc2c[nH]c3ccccc23)C(=O)N[C@@H](CO)C(=O)N[C@@H](Cc2c[nH]c3ccccc23)C(=O)N(C)[C@@H](CCCC)C(=O)N(C)[C@@H](CCCC)C(=O)N[C@@H](CCCNC(=N)N)C(=O)N1)C(N)=O` [Example 11021] ({CH2CO}-Y[NMeA]NP[Dab]L[Hyp]WSW[NMeNle][NMeNle]RCGSGSGK(Palmitoyl)-NH2; thioether N-14), the IC50 was 100 to 1600 nM. The same measure, in the same setting: to `CCCC[C@H]1C(=O)N(C)[C@@H](CCCC)C(=O)N[C@@H](CC(C)C)C(=O)N[C@H](C(=O)NCCOCCOCCOCCOCCOCCOCCC(=O)O)CSCC(=O)N[C@@H](Cc2ccc(O)cc2)C(=O)N(C)[C@@H](C)C(=O)N[C@@H](CC(N)=O)C(=O)N2CCC[C@H]2C(=O)N[C@@H](Cc2cnc[nH]2)C(=O)N[C@@H](CCC(=O)O)C(=O)N2C[C@H](O)C[C@@H]2C(=O)N[C@@H](Cc2c[nH]c3ccccc23)C(=O)N[C@@H](CCN)C(=O)N[C@@H](Cc2cn(CC(=O)O)c3ccccc23)C(=O)N1C` [Example 11044] ({CH2CO}-Y[NMeA]NPHE[d(cisHyp)]W[Dab][Trp(1-CH2COOH)][NMeNle][NMeNle]LC[PEG6]-OH; thioether N-14) belongs 10 to 99 nM. `CCCC[C@H]1C(=O)N(C)[C@@H](CCCC)C(=O)N[C@@H](CCC(=O)O)C(=O)N[C@H](C(=O)NCC(=O)NCC(=O)NCC(=O)NCCCCCCCCCCC(=O)O)CSCC(=O)N[C@@H](Cc2ccc(O)cc2)C(=O)N(C)[C@@H](C)C(=O)N[C@@H](CC(=O)O)C(=O)N2CCC[C@H]2C(=O)N[C@@H](CN)C(=O)N[C@@H](CC(C)C)C(=O)N2C[C@H](O)C[C@@H]2C(=O)N[C@@H](Cc2c[nH]c3ccccc23)C(=O)N[C@@H](CCN)C(=O)N[C@@H](Cc2cn(CC(=O)O)c3ccccc23)C(=O)N1C` [Example 11144] ({CH2CO}-Y[NMeA]DP[Dap]L[d(cisHyp)]W[Dab][Trp(1-CH2COOH)][NMeNle][NMeNle]ECGGG[Aun]-OH; thioether N-14): the IC50 was in the range of 10 to 99 nM.

Take `CCCC[C@H]1C(=O)N(C)[C@@H](CCCC)C(=O)N[C@@H](CC(C)C)C(=O)N[C@H](C(=O)NCC(=O)NCC(=O)NCC(=O)NCCCCCCCCCCC(=O)O)CSCC(=O)N[C@@H](Cc2ccc(O)cc2)C(=O)N(C)[C@@H](C)C(=O)N[C@@H](CC(=O)O)C(=O)N2CCC[C@H]2C(=O)N[C@@H](CN)C(=O)N[C@@H](CC(C)C)C(=O)N2C[C@H](O)C[C@H]2C(=O)N[C@@H](Cc2c[nH]c3ccccc23)C(=O)N[C@@H](CCN)C(=O)N[C@@H](Cc2cn(CC(=O)O)c3ccccc23)C(=O)N1C` [Example 11096] ({CH2CO}-Y[NMeA]DP[Dap]L[Hyp]W[Dab][Trp(1-CH2COOH)][NMeNle][NMeNle]LCGGG[Aun]-OH; thioether N-14): the IC50 was 10 to 99 nM. On the same count and under the same terms, with `CCCC[C@H]1C(=O)N(C)[C@@H](CCCC)C(=O)N[C@@H](CC(C)C)C(=O)N[C@H](C(=O)NCCCCCCCCCCC(=O)NCCCCCCCCCCC(=O)NCCCCCCCCCCC(=O)O)CSCC(=O)N[C@@H](Cc2ccc(O)cc2)C(=O)N(C)[C@@H](C)C(=O)N[C@@H](CC(N)=O)C(=O)N2CCC[C@H]2C(=O)N[C@@H](CN)C(=O)N[C@@H](CCC(N)=O)C(=O)N2C[C@H](O)C[C@H]2C(=O)N[C@@H](Cc2c[nH]c3ccccc23)C(=O)N[C@@H](CO)C(=O)N[C@@H](Cc2cn(CC(=O)O)c3ccccc23)C(=O)N1C` [Example 11090] ({CH2CO}-Y[NMeA]NP[Dap]Q[Hyp]WS[Trp(1-CH2COOH)][NMeNle][NMeNle]LC[Aun][Aun][Aun]-OH; thioether N-14) the figure was 10 to 99 nM; with `C=C1N[C@@H](Cc2c[nH]c3ccccc23)C(=O)N[C@@H](CCN)C(=O)N[C@@H](Cc2cn(CC(=O)O)c3ccccc23)C(=O)N(C)[C@@H](CCCC)C(=O)N(C)[C@@H](CCCC)C(=O)N[C@@H](CC(C)C)C(=O)N[C@H](C(=O)NCC(=O)N[C@@H](CC(=O)NCCOCCOCCOCCOCCOCCOCCC(=O)NC[C@H](NC(=O)CCCCCCCCCCCCCCCCC(=O)O)C(=O)O)C(=O)O)CSCC(=O)N[C@@H](Cc2ccc(O)cc2)C(=O)N(C)[C@@H](C)C(=O)N[C@@H](CC(N)=O)C(=O)N2CCC[C@H]2C(=O)N[C@@H](CN)C(=O)N[C@@H](CC(C)C)C(=O)N2C[C@H](O)C[C@@]12O` [Example 11183], 100 to 1600 nM.

Take `CCCCCCCCCCCCCCCC(=O)NCCCC[C@H](NC(=O)[C@H](CO)NC(=O)CNC(=O)CNC(=O)CNC(=O)CNC(=O)[C@@H]1CSCC(=O)N[C@@H](Cc2ccc(O)cc2)C(=O)N(C)[C@@H](C)C(=O)N[C@@H](CC(N)=O)C(=O)N2CCC[C@H]2C(=O)N[C@@H](CCN)C(=O)N[C@@H](CC(C)C)C(=O)N2C[C@H](O)C[C@H]2C(=O)N[C@@H](Cc2c[nH]c3ccccc23)C(=O)N[C@@H](CO)C(=O)N[C@@H](Cc2c[nH]c3ccccc23)C(=O)N(C)[C@@H](CCCC)C(=O)N(C)[C@@H](CCCC)C(=O)N[C@@H](CCCNC(=N)N)C(=O)N1)C(N)=O` [Example 11022] ({CH2CO}-Y[NMeA]NP[Dab]L[Hyp]WSW[NMeNle][NMeNle]RCGGGGSK(Palmitoyl)-NH2; thioether N-14): the IC50 was in the range of 100 to 1600 nM. The same measure, in the same setting: to `CCCC[C@H]1C(=O)N(C)[C@@H](CCCC)C(=O)N[C@@H](CC(C)C)C(=O)N[C@H](C(=O)NCC(=O)NCC(=O)NCC(=O)NCCCCCCCCCCC(=O)O)CSCC(=O)N[C@@H](Cc2ccc(O)cc2)C(=O)N(C)[C@@H](C)C(=O)N[C@@H](CC(N)=O)C(=O)N2CCC[C@H]2C(=O)N[C@@H](CN)C(=O)N[C@@H](CCC(=O)O)C(=O)N2C[C@H](O)C[C@H]2C(=O)N[C@@H](Cc2c[nH]c3ccccc23)C(=O)N[C@@H](CCN)C(=O)N[C@@H](Cc2cn(CC(=O)O)c3ccccc23)C(=O)N1C` [Example 11093] ({CH2CO}-Y[NMeA]NP[Dap]E[Hyp]W[Dab][Trp(1-CH2COOH)][NMeNle][NMeNle]LCGGG[Aun]-OH; thioether N-14) belongs 10 to 99 nM; to `CCCCCCCCCCCCCCCC(=O)NCCCC[C@H](NC(=O)[C@H](CO)NC(=O)CNC(=O)CNC(=O)CNC(=O)[C@@H]1CSCC(=O)N[C@@H](Cc2ccc(O)cc2)C(=O)N(C)[C@@H](C)C(=O)N[C@@H](CC(N)=O)C(=O)N2CCC[C@H]2C(=O)N[C@@H](CCN)C(=O)N[C@@H](CC(C)C)C(=O)N2C[C@H](O)C[C@H]2C(=O)N[C@@H](Cc2c[nH]c3ccccc23)C(=O)N[C@@H](CO)C(=O)N[C@@H](Cc2c[nH]c3ccccc23)C(=O)N(C)[C@@H](CCCC)C(=O)N(C)[C@@H](CCCC)C(=O)N[C@@H](CCCNC(=N)N)C(=O)N1)C(N)=O` [Example 11024] ({CH2CO}-Y[NMeA]NP[Dab]L[Hyp]WSW[NMeNle][NMeNle]RCGGGSK(Palmitoyl)-NH2; thioether N-14), 100 to 1600 nM. Still for that read-out and setting: to `CCCC[C@H]1C(=O)N(C)[C@@H](CCCC)C(=O)N[C@@H](CC(C)C)C(=O)N[C@H](C(=O)NCC(=O)N[C@@H](CC(=O)NCCCOCCOCCOCCCNC(=O)CC[C@H](NC(=O)CCCCCCCCCCCCCCCCC(=O)O)C(=O)O)C(=O)O)CSCC(=O)N[C@@H](Cc2ccc(O)cc2)C(=O)N(C)[C@@H](C)C(=O)N[C@@H](CC(N)=O)C(=O)N2CCC[C@H]2C(=O)N[C@@H](CN)C(=O)N[C@@H](CC(C)C)C(=O)N2C[C@H](O)C[C@@H]2C(=O)N[C@@H](Cc2c[nH]c3ccccc23)C(=O)N[C@@H](CCN)C(=O)N[C@@H](Cc2cn(CC(=O)O)c3ccccc23)C(=O)N1C` [Example 11160] ({CH2CO}-Y[NMeA]NP[Dap]L[d(cisHyp)]W[Dab][Trp(1-CH2COOH)][NMeNle][NMeNle]LCGD(X6)-OH; thioether N-14) belongs 100 to 1600 nM. Same read-out and setting: with `CCCC[C@H]1C(=O)N(C)[C@@H](CCCC)C(=O)N[C@@H](CC(C)C)C(=O)N[C@H](C(=O)NCC(=O)NCCCC[C@H](NC(=O)CCCCCCCCCCCCCCCCC(=O)O)C(=O)O)CSCC(=O)N[C@@H](Cc2ccc(O)cc2)C(=O)N(C)[C@@H](C)C(=O)N[C@@H](CC(N)=O)C(=O)N2CCC[C@H]2C(=O)N[C@@H](CN)C(=O)N[C@@H](CC(C)C)C(=O)N2C[C@H](O)C[C@@H]2C(=O)N[C@@H](Cc2c[nH]c3ccccc23)C(=O)N[C@@H](CCN)C(=O)N[C@@H](Cc2cn(CC(=O)O)c3ccccc23)C(=O)N1C` [Example 11141] ({CH2CO}-Y[NMeA]NP[Dap]L[d(cisHyp)]W[Dab][Trp(1-CH2COOH)][NMeNle][NMeNle]LCG-{εLys(α-Octadecanedioyl)}; thioether N-14) the figure was 10 to 99 nM.

Consider `CCCC[C@H]1C(=O)N(C)[C@@H](CCCC)C(=O)N[C@@H](CC(C)C)C(=O)N[C@H](C(=O)NCC(=O)N[C@@H](CC(=O)O)C(=O)NCCCOCCOCCOCCCNC(=O)CC[C@H](NC(=O)CCCCCCCCCCCCC(=O)O)C(=O)O)CSCC(=O)N[C@@H](Cc2ccc(O)cc2)C(=O)N(C)[C@@H](C)C(=O)N[C@@H](CC(N)=O)C(=O)N2CCC[C@H]2C(=O)N[C@@H](CN)C(=O)N[C@@H](CC(C)C)C(=O)N2C[C@H](O)C[C@H]2C(=O)N[C@@H](Cc2c[nH]c3ccccc23)C(=O)N[C@@H](CCN)C(=O)N[C@@H](Cc2cn(CC(=O)O)c3ccccc23)C(=O)N1C` [Example 11254] ({CH2CO}-Y[NMeA]NP[Dap]L[Hyp]W[Dab][Trp(1-CH2COOH)][NMeNle][NMeNle]LCGD-X11; thioether N-14), for which the IC50 is 0.3 to 9.9 nM.
